System: Corticium sasakii (syn. Rhizoctonia solani)
Test: Activity against sheath blight on rice caused by Corticium sasakii (protective spray, pot test)
Assay type: in vivo
Settings: for Efficacy in % of the untreated control: individual active compound, rice, evaluated after 11 days, untreated control 90% infection
Procedure: The active compounds, separately or jointly, were prepared as a stock solution with 0.25% by weight of active compound in acetone or DMSO. 1% by weight of the emulsifier Uniperol® EL (wetting agent having emulsifying and dispersing action based on ethoxylated alkylphenols) was added to this solution, and the solution was diluted with water to the desired concentration.
Use example—Activity against sheath blight on rice caused by Corticium sasakii (syn. Rhizoctonia solani) Pots of rice plants of the cultivar “Tai-Nong 67” were sprayed to runoff point with an aqueous suspension having the concentration of active compound stated below. The next day, oat grains infected with Corticium sasakii were placed into the pots (in each case 5 grains per pot). The plants were then placed in a chamber at 26° C. and maximum atmospheric humidity. After 11 days, the sheath blight on the untreated but infected control plants had developed to such an extent that the infection could be determined visually in %.
Evaluation is carried out by determining the infected plants in percent. These percentages were converted into efficacies.
The efficacy (E) is calculated as follows using Abbot's formula: E=(1−α/β)·100 α corresponds to the fungicidal infection of the treated plants in % and β corresponds to the fungicidal infection of the untreated (control) plants in % An efficacy of 0 means that the infection level of the treated plants corresponds to that of the untreated control plants; an efficacy of 100 means that the treated plants are not infected.
The expected efficacies of the mixtures of active compounds are determined using Colby's formula [R. S. Colby, Weeds 15, 20-22 (1967)] and compared with the observed efficacies.
Colby's formula: E=x+y−x·y/100
E expected efficacy, expressed in % of the untreated control, when using the mixture of the active compounds A and B at the concentrations a and b x efficacy, expressed in % of the untreated control, when using active compound A at the concentration a y efficacy, expressed in % of the untreated control, when using active compound B at the concentration b

CC1CCN(c2c(-c3c(F)cccc3Cl)c(Cl)nc3ncnn23)CC1 (single isomer, unassigned) [A]
Efficacy in % of the untreated control (1 ppm in the spray liquor): 0%
Efficacy in % of the untreated control (4 ppm in the spray liquor): 0%

CC1CCN(c2c(-c3c(F)cccc3Cl)c(Cl)nc3ncnn23)CC1 (single isomer, unassigned) [B]
Efficacy in % of the untreated control (1 ppm in the spray liquor): 0%
Efficacy in % of the untreated control (4 ppm in the spray liquor): 72%
Effectiveness against sheath blight, comparison in words (summary of the test results): activity comparable to that of compound I

CC1CCN(c2c(-c3c(F)cc(F)cc3F)c(Cl)nc3ncnn23)CC1 [I, 5-chloro-7-(4-methylpiperidin-1-yl)-6-(2,4,6-trifluorophenyl)-[1,2,4]tri-azolo[1,5-a]pyrimidine]
Efficacy in % of the untreated control (1 ppm in the spray liquor): 33%
Efficacy in % of the untreated control (4 ppm in the spray liquor): 67%

CC(Cc1ccc(C(C)(C)C)cc1)CN1C[C@@H](C)O[C@@H](C)C1 (stereo partly drawn) [II, 4-[3-(4-tert-butylphenyl)-2-methylpropyl]-2,6-dimethylmorpholine]
Efficacy in % of the untreated control (1 ppm in the spray liquor): 0%
Efficacy in % of the untreated control (4 ppm in the spray liquor): 0%
